Measured values taken from patent publication US20250066286A1, “COMPOSITIONS OF (Z)-ENDOXIFEN AND METHODS OF ENRICHMENT THEREOF” (Atossa Therapeutics, Inc., priority 2022, published 2025).
Converted amounts (≈) assume the structure as drawn. Where two headings read alike, the source gives them in different places.

Assay: Solubility testing of (Z)-endoxifen in single solvents
Assay type: physicochemical
Settings: for solubility at 15 min: 25 °C; for solubility at 15 min / solubility: organic solvent or mixture, thermodynamic from solid
Method: To test the solubility of (Z)-endoxifen in varying conditions, 10 mg of (Z)-endoxifen was added to a stoppered tube, and 0.01 ml of the selected solvent was added (1000 mg/ml solution). The tube was shaken vigorously for 1 minute and then incubated at a constant temperature of 25.0° C. for 15 minutes. If the solid was not completed dissolved, the tube was shaken again and placed at the constant temperature of 25.0° C. for another 15 minutes. If the solid was completely dissolved at this step, it was considered to be very soluble in the selected solvent system. If the solid was not dissolved by this step, another 0.09 ml was added (yielding a 100 mg/ml solution) and an attempt to further dissolve the solid was made by the same steps of shaking and incubating twice over as described previously. If the solid was completely dissolved at this step, it was considered freely soluble. If the solid was not dissolved by this step another 0.2 ml was added (yielding a 33.3 mg/ml solution) and an attempt to further dissolve the solid was made by the same steps of shaking and incubating twice over as described previously. If the solid was completely dissolved at this step, it was considered soluble. If the solid was not dissolved by this step another, 0.7 ml was added (yielding a 10 mg/ml solution) and an attempt to further dissolve the solid was made by the same steps of shaking and incubating twice over as described previously. If the solid was completely dissolved at this step, it was considered sparingly soluble. If the solid was not dissolved by this step the sample was considered to be slightly soluble or very slightly soluble and the solution was heated until the boiling point of the solvent system (max 100° C.) under stirring with a rate of 0.5° C. per minute temperature ramp rate to verify the solubility at high temperatures. The hot solution was after cooled to room temperature with a cooling rate of 0.5° C. per minute to verify if the sample had precipitated after up to 18 hours under magnetic stirring. The same procedure was also used for the solvent mixture solubility tests. The concentrations investigated for the solvent mixture stability were 40 mg/ml and 100 mg/ml. Some solutions in the following example were precipitated by cooling of the solution from a temperature between 50-100° C. to between 10-25° C. at a rate ranging from −0.2 to −0.5° C./minute resulting in a precipitate.

solubility at 15 min (2-propanol, 2-propanol, room temperature, read-out: Solubility): 10000 µg/mL (≈ 26.8 mM)
solubility at 15 min (2-propanol, solvent 2-propanol, room temperature, read-out: Solubility at RT): 10000 µg/mL (≈ 26.8 mM)
solubility (2-propanol, 2-propanol, high temperature, read-out: Solubility): 20 to 100 mg/mL (≈ 53.5 to 268 mM)
solubility at 15 min (4-met-2-pentanone, 4-met-2-pentanone, room temperature, read-out: Solubility): 10000 µg/mL (≈ 26.8 mM)
solubility (4-met-2-pentanone, 4-met-2-pentanone, high temperature, read-out: Solubility): 100 to 200 mg/mL (≈ 268 to 535 mM)
solubility at 15 min (DMF, DMF, read-out: Solubility): 250000 to 500000 µg/mL (≈ 669 to 1340 mM)
solubility at 15 min (THF, THF, read-out: Solubility): 111000 to 125000 µg/mL (≈ 297 to 335 mM)
solubility at 15 min (acetone, acetone, room temperature, read-out: Solubility): 10000 µg/mL (≈ 26.8 mM)
solubility at 15 min (acetone, solvent acetone, room temperature, read-out: Solubility at RT): 10000 µg/mL (≈ 26.8 mM)
solubility (acetone, acetone, high temperature, read-out: Solubility): < 50 mg/mL
solubility (acetone, solvent acetone, 100 mg/mL, high temperature, read-out: Solubility HT (100 mg/mL): Sol. HT): < 100 mg/mL
solubility at 15 min (acetonitrile, acetonitrile, room temperature, read-out: Solubility): < 10000 µg/mL
solubility at 15 min (acetonitrile, solvent acetonitrile, room temperature, read-out: Solubility at RT): < 10000 µg/mL
solubility (acetonitrile, acetonitrile, high temperature, read-out: Solubility): 20 to 100 mg/mL (≈ 53.5 to 268 mM)
solubility (acetonitrile, solvent acetonitrile, 100 mg/mL, high temperature, read-out: Solubility HT (100 mg/mL): Sol. HT): < 100 mg/mL
solubility at 15 min (butyl acetate, butyl acetate, room temperature, read-out: Solubility): 10000 µg/mL (≈ 26.8 mM)
solubility at 15 min (butyl acetate, solvent butyl acetate, room temperature, read-out: Solubility at RT): 10000 µg/mL (≈ 26.8 mM)
solubility (butyl acetate, butyl acetate, high temperature, read-out: Solubility): 20 to 100 mg/mL (≈ 53.5 to 268 mM)
solubility at 15 min (butyl methyl ether, solvent butyl methyl ether, room temperature, read-out: Solubility at RT): 10000 µg/mL (≈ 26.8 mM)
solubility (butyl methyl ether, solvent butyl methyl ether, 10 mg/mL, high temperature, read-out: Solubility HT (10 mg/mL): Sol. HT): < 10 mg/mL
solubility at 15 min (dimethylformamide (stored as limethylformamide), solvent limethylformamide, room temperature, read-out: Solubility at RT): 200000 to 250000 µg/mL (≈ 535 to 669 mM)
solubility at 15 min (ethanol, ethanol, room temperature, read-out: Solubility): 10000 µg/mL (≈ 26.8 mM)
solubility at 15 min (ethanol, solvent ethanol, room temperature, read-out: Solubility at RT): 10000 µg/mL (≈ 26.8 mM)
solubility (ethanol, ethanol, high temperature, read-out: Solubility): 20 to 100 mg/mL (≈ 53.5 to 268 mM)
solubility at 15 min (ethyl acetate, ethyl acetate, room temperature, read-out: Solubility): 10000 µg/mL (≈ 26.8 mM)
solubility at 15 min (ethyl acetate, solvent ethyl acetate, room temperature, read-out: Solubility at RT): 10000 µg/mL (≈ 26.8 mM)
solubility (ethyl acetate, ethyl acetate, high temperature, read-out: Solubility): 20 to 100 mg/mL (≈ 53.5 to 268 mM)
solubility at 15 min (heptane, heptane, room temperature, read-out: Solubility): < 10000 µg/mL
solubility at 15 min (heptane, solvent heptane, room temperature, read-out: Solubility at RT): < 10000 µg/mL
solubility (heptane, heptane, high temperature, read-out: Solubility): < 10 mg/mL
solubility (heptane, solvent heptane, 10 mg/mL, high temperature, read-out: Solubility HT (10 mg/mL): Sol. HT): < 10 mg/mL
solubility at 15 min (methanol, methanol, read-out: Solubility): 17000 to 20000 µg/mL (≈ 45.5 to 53.5 mM)
solubility at 15 min (methanol, solvent methanol, room temperature, read-out: Solubility at RT): 17000 to 20000 µg/mL (≈ 45.5 to 53.5 mM)
solubility at 15 min (methyl isobutyl ketone (4-methyl-2-pentanone), solvent methyl isobutyl ketone (4-methyl-2-pentanone), room temperature, read-out: Solubility at RT): 10000 µg/mL (≈ 26.8 mM)
Solubility HT (10 mg/mL): Clear point (solvent 2-propanol, 10 mg/mL): 44 °C
Solubility HT (10 mg/mL): Sol. HT (solvent 2-propanol, 10 mg/mL, high temperature): YES
Solubility HT (20 mg/mL): Clear point (solvent 2-propanol, 20 mg/mL): 50.6 °C
Solubility HT (20 mg/mL): Sol. HT (solvent 2-propanol, 20 mg/mL, high temperature): YES
Solubility HT (20 mg/mL): Re-PPT (solvent 2-propanol, 20 mg/mL, on cooling): YES
Solubility HT (100 mg/mL): Clear point (solvent 2-propanol, 100 mg/mL): 74.4 °C
Solubility HT (100 mg/mL): Cloudy point (solvent 2-propanol, 100 mg/mL): 43.9 °C
Solubility HT (100 mg/mL): Sol. HT (solvent 2-propanol, 100 mg/mL, high temperature): YES
Solubility HT (100 mg/mL): Re-PPT (solvent 2-propanol, 100 mg/mL, on cooling): YES
Solubility HT (10 mg/mL): Clear point (solvent acetone, 10 mg/mL): 30 °C
Solubility HT (10 mg/mL): Sol. HT (solvent acetone, 10 mg/mL, high temperature): YES
Solubility HT (20 mg/mL): Clear point (solvent acetone, 20 mg/mL): 38 °C
Solubility HT (20 mg/mL): Re-PPT after 18 hours at −20° C. (solvent acetone, 20 mg/mL): YES
Solubility HT (20 mg/mL): Sol. HT (solvent acetone, 20 mg/mL, high temperature): YES
Solubility HT (10 mg/mL): Clear point (solvent acetonitrile, 10 mg/mL): 56 °C
Solubility HT (10 mg/mL): Sol. HT (solvent acetonitrile, 10 mg/mL, high temperature): YES
Solubility HT (10 mg/mL): Re-PPT (solvent acetonitrile, 10 mg/mL, on cooling): YES
Solubility HT (20 mg/mL): Clear point (solvent acetonitrile, 20 mg/mL): 75 °C
Solubility HT (20 mg/mL): Sol. HT (solvent acetonitrile, 20 mg/mL, high temperature): YES
Solubility HT (20 mg/mL): Re-PPT (solvent acetonitrile, 20 mg/mL, on cooling): YES
Structure (SMILES): CC/C(=C(\c1ccc(O)cc1)c1ccc(OCCNC)cc1)c1ccccc1 [(Z)-endoxifen, (Z)-4-(1-(4-(2-(methylamino)ethoxy)phenyl)-2-phenylbut-1-enyl)phenol]
